Measurements: publication PMC8860869 (Chemical research in toxicology, 2022)

Columns and labels:
Experiment in all cases: cross-linking in cells, immunoblot
Format in all cases: cell-based
Conditions in all cases: covalent; living yeast, toxic concentrations
Mpd1 = biological target: T1, Mpd1 (Saccharomyces cerevisiae, UniProt Q12404)
T1 sequence (Q12404 22-318): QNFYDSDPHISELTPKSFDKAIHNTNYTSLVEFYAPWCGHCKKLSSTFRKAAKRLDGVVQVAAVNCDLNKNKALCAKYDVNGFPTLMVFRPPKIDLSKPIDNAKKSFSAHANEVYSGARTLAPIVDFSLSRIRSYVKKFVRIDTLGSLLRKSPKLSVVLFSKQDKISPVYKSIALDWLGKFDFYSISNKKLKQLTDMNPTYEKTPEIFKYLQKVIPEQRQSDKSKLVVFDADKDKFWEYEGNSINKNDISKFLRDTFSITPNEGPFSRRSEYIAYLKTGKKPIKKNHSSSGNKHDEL

Mpd2 = biological target: T2, Mpd2 (Saccharomyces cerevisiae, UniProt Q99316)
T2 sequence (Q99316 23-277): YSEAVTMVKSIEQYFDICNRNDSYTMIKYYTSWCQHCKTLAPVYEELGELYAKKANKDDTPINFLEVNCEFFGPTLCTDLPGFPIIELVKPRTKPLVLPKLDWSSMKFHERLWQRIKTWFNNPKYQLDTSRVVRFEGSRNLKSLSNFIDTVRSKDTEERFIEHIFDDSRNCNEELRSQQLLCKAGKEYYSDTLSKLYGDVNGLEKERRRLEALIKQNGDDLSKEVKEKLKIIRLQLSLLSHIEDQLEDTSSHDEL

Eug1 = biological target: T3, Eug1 (Saccharomyces cerevisiae, UniProt P32474)
T3 sequence (P32474 30-517): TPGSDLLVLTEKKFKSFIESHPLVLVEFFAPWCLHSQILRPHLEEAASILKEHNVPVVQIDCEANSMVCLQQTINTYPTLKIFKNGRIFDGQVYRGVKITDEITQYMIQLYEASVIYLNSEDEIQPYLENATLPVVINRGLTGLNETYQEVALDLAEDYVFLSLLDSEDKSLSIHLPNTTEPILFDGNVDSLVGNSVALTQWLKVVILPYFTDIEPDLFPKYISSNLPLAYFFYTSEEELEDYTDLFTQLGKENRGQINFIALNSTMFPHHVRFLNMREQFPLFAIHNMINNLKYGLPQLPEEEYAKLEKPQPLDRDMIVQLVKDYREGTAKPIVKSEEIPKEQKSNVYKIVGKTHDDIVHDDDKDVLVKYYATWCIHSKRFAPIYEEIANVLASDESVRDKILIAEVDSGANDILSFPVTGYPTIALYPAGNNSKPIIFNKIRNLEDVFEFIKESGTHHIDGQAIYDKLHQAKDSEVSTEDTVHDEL

Pdi1 = biological target: T4, Pdi1 (Saccharomyces cerevisiae, UniProt P17967)
T4 sequence (P17967 29-522): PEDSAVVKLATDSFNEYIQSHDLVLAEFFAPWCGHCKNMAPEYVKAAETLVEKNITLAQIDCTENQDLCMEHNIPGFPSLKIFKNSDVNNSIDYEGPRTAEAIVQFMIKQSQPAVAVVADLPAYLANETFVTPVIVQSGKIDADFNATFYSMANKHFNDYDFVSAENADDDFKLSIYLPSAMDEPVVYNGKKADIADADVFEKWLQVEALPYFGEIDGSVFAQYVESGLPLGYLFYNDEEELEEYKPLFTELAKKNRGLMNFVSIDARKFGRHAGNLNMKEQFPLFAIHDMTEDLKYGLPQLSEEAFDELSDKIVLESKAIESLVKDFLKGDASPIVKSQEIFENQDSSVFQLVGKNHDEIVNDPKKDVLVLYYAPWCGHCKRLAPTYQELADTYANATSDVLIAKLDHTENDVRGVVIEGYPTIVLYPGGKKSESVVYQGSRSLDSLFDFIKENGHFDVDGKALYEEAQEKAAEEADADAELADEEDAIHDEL

C1OC1C1CO1 (stereo not shown) [1,2,3,4-diepoxybutane]
cross-linking in cells, immunoblot (Mpd1): Each of these proteins also underwent protein cross-linking in cells treated with toxic concentrations
cross-linking in cells, immunoblot (Mpd2): Each of these proteins also underwent protein cross-linking in cells treated with toxic concentrations
cross-linking in cells, immunoblot (Eug1): Each of these proteins also underwent protein cross-linking in cells treated with toxic concentrations
cross-linking in cells, immunoblot (Pdi1): Each of these proteins also underwent protein cross-linking in cells treated with toxic concentrations
